Measurements published in patent publication US20210221848A1, “POLYMYXIN DERIVATIVES AND THEIR USE IN COMBINATION THERAPY TOGETHER WITH DIFFERENT ANTIBIOTICS” (priority 2014, published 2021).

What was measured:
E. coli [1] = assay: MIC in the presence of a fixed concentration (2 μg/mL) of Rifampicin; assay type: cell-based, Escherichia coli; conditions: Rifampicin 2 μg/mL
K. pneumoniae [2] = assay: as above; assay type: cell-based, Klebsiella pneumoniae; conditions: Rifampicin 2 μg/mL
A. baumannii [3] = assay: MIC in the presence of […] of rifampicin; assay type: cell-based, Acinetobacter baumannii
HK-2 cell line = assay: In vitro renal cell toxicity assay (resazurin reduction)
Description: MICs were determined as described herein. HK-2 cell IC50 values were determined as described herein. Values are reported relative to Polymyxin B.

P. aeruginosa ATCC 27853 = assay: In vivo efficacy, thigh infection in mice, IV dosing, 9 h model; design: species or system Pseudomonas aeruginosa; conditions: mouse thigh, dose 3.4 mg/kg drug base IV at 1, 3.5 and 6 h post-infection
Description: Compounds were administered in solution by intravenous (IV) bolus injection into the lateral tail vein. […] At 1 hour post infection, 4 animals were humanely euthanized using pentabarbitone overdose to provide a pre-treatment control group. At 9 hours post infection, the clinical condition of all animals was assessed prior to them being humanely euthanized by pentabarbitone overdose. Animal weight was determined before both thighs were removed and weighed individually. Individual thigh tissue samples were homogenized in ice cold sterile phosphate buffered saline. Thigh homogenates were then quantitatively cultured onto cystine lactose electrolyte deficient (CLED) agar and incubated at 37° C. for 24 hours before colonies were counted.

E. coli [4] = conditions: absence of a second agent, Table 6B
P. aeruginosa = conditions: absence of a second agent, Table 6B
A. baumannii [5] = conditions: absence of a second agent, Table 6B
K. pneumoniae [6] = conditions: absence of a second agent, Table 6B
[7] = tested on: Escherichia coli ATCC 25922; conditions: mouse thigh, 1.47 mg/kg/dose free base IV at 1, 3.5 and 6 h post-infection, 9 h model
[8] = A. baumannii ATCC BAA-747, Table 5C
[9] = A. baumannii ATCC BAA-747, Table 5D
[10] = A. baumannii NCTC 13424, Table 5C
[11] = A. baumannii NCTC 13424, Table 5D

Substance	MIC in combination with Rifampicin, E. coli ATCC 25922 (E. coli [1]; Table 5C) [micrograms/mL]	MIC in combination with Rifampicin, E. coli ATCC 25922 (E. coli [1]; Table 5D) [micrograms/mL]	MIC in combination with Rifampicin, E. coli NCTC 13441 (E. coli [1]; Table 5C) [micrograms/mL]	MIC in combination with Rifampicin, E. coli NCTC 13441 (E. coli [1]; Table 5D) [micrograms/mL]	MIC in combination with Rifampicin, K. pneumoniae ATCC 4352 (K. pneumoniae [2]; Table 5C) [micrograms/mL]	MIC in combination with Rifampicin, K. pneumoniae ATCC 4352 (K. pneumoniae [2]; Table 5D) [micrograms/mL]	MIC in combination with Rifampicin, K. pneumoniae ATCC BAA-2146 (K. pneumoniae [2]; Table 5C) [micrograms/mL]	MIC in combination with Rifampicin, K. pneumoniae ATCC BAA-2146 (K. pneumoniae [2]; Table 5D) [micrograms/mL]	MIC in combination with Rifampicin, A. baumannii ATCC BAA-747 (A. baumannii [3]; [8]) [micrograms/mL]	MIC in combination with Rifampicin, A. baumannii ATCC BAA-747 (A. baumannii [3]; [9]) [micrograms/mL]	MIC in combination with Rifampicin, A. baumannii NCTC 13424 (A. baumannii [3]; [10]) [micrograms/mL]	MIC in combination with Rifampicin, A. baumannii NCTC 13424 (A. baumannii [3]; [11]) [micrograms/mL]	Log reduction from vehicle (CFU/g) (P. aeruginosa ATCC 27853) [log10 CFU/g]	MIC, E. coli ATCC 25922 (E. coli [4]) [micrograms/mL]	MIC, E. coli NCTC 13441 (E. coli [4]) [micrograms/mL]	MIC, P. aeruginosa ATCC 27853 (P. aeruginosa) [micrograms/mL]	MIC, P. aeruginosa CCUG 59347 (P. aeruginosa) [micrograms/mL]	MIC, A. baumannii ATCC BAA-747 (A. baumannii [5]) [micrograms/mL]	MIC, A. baumannii NCTC 13424 (A. baumannii [5]) [micrograms/mL]	MIC, K. pneumoniae ATCC 4352 (K. pneumoniae [6]) [micrograms/mL]	further results
1,2,3,4- tetrahydroisoquinoline- 4-carbonyl polymyxin B nonapeptide [Example D15]	≤0.015	≤0.015	0.03	0.03	0.03	≤0.015	0.125	0.125	≤0.015	≤0.015	≤0.015	≤0.015	3.89	0.25	0.5	0.25	0.5	2	2		HK-2 IC50 rel to PMB (HK-2 cell line): 17
(S)-1-benzyl piperazine-2-carbonyl polymyxin B nonapeptide [Example D52]														0.125	0.125	0.5	0.5	0.5	0.25	0.125	MIC, K. pneumoniae ATCC BAA-2146 (K. pneumoniae [6]): 0.25 micrograms/mL; Mean log10 CFU reduction vs. control [7]: 4.04 log10 CFU
(cis-5-cyclohexyl- piperidine)-3-carbonyl polymyxin B nonapeptide [Example D11]	≤0.015	0.125	0.06	0.06	0.06	0.125	1	0.5	0.06	0.125	0.5	0.25	3.86	0.25	0.25	0.5	0.5	1	0.5	0.25	MIC, K. pneumoniae ATCC BAA-2146 (K. pneumoniae [6]): 0.25 micrograms/mL
